Results from PubChem BioAssay AID276 (DTP/NCI, 2004).
Values joined by “and” are separate entries in the source; they are usually repeats but may differ in a detail not shown here. Equal values may be shown once. Toxic doses and inconclusive results are not listed.

Test system: B6C3F1 mice, Lewis lung carcinoma iv, survival T/C
Test: NCI In Vivo Anticancer Drug Screen. Data for tumor model Lewis Lung Carcinoma (intravenous) in B6C3F1 mice
Settings: endpoint: median survival time, higher = longer survival
Summary of the method: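 Antitumor activity is assessed in tumor-bearing mice by comparing survival after compound treatment against vehicle-treated controls, reported as a T/C ratio.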

[1] = dose: 25.0 mg/kg/injection, schedule: Q01DX009 (ip), vehicle: Klucel (hydroxypropylcellulose) (HPC)
[2] = dose: 50.0 mg/kg/injection, schedule: Q01DX009 (ip), vehicle: Klucel (hydroxypropylcellulose) (HPC)
[3] = dose: 100.0 mg/kg/injection, schedule: Q01DX009 (ip), vehicle: Klucel (hydroxypropylcellulose) (HPC)
[4] = dose: 25.0 mg/kg/injection, schedule: Q01DX009 (ip), vehicle: saline
[5] = dose: 12.5 mg/kg/injection, schedule: Q01DX009 (ip), vehicle: saline with Tween-80
[6] = dose: 25.0 mg/kg/injection, schedule: Q01DX009 (ip), vehicle: saline with Tween-80
[7] = dose: 50.0 mg/kg/injection, schedule: Q01DX009 (ip), vehicle: saline with Tween-80
[8] = dose: 100.0 mg/kg/injection, schedule: Q01DX009 (ip), vehicle: saline with Tween-80
[9] = dose: 200.0 mg/kg/injection, schedule: Q01DX009 (ip), vehicle: saline with Tween-80
[10] = dose: 25.0 mg/kg/injection, schedule: Q01DX009 (ip), vehicle: suspension in saline
[11] = dose: 50.0 mg/kg/injection, schedule: Q01DX009 (ip), vehicle: suspension in saline
[12] = dose: 12.5 mg/kg/injection, schedule: Q01DX009 (ip), vehicle: saline
[13] = dose: 50.0 mg/kg/injection, schedule: Q01DX009 (ip), vehicle: saline
[14] = dose: 100.0 mg/kg/injection, schedule: Q01DX009 (ip), vehicle: saline
[15] = dose: 200.0 mg/kg/injection, schedule: Q01DX009 (ip), vehicle: saline
[16] = dose: 0.75 mg/kg/injection, schedule: Q01DX009 (ip), vehicle: saline
[17] = dose: 1.5 mg/kg/injection, schedule: Q01DX009 (ip), vehicle: saline
[18] = dose: 3.0 mg/kg/injection, schedule: Q01DX009 (ip), vehicle: saline

COc1cc(Cc2nccc3cc(OC)c(OC)cc23)c(C(C)=O)cc1OC
T/C (dose: 12.5 mg/kg/injection, schedule: Q01DX009 (ip), vehicle: Klucel (hydroxypropylcellulose) (HPC)): 98 % of control | T/C [1]: 120 % of control | T/C [2]: 106 % of control | T/C [3]: 101 % of control

CN(C)c1ncnc2c1ncn2C1OC(CO)C(N)C1O (configuration not stated)
T/C [4]: 112 % of control

CCO/C=C1\SC(=S)N(c2ccccc2C)C1=O
T/C [5]: 104 % of control | T/C [6]: 110 % of control | T/C [7]: 98 % of control | T/C [8]: 116 % of control | T/C [9]: 108 % of control | T/C (dose: 400.0 mg/kg/injection, schedule: Q01DX009 (ip), vehicle: saline with Tween-80): 89 % of control

CC1=CC2C(O)(CC(CO)=CC3C4C(C)(C)C4(OC(=O)c4ccccc4)C(OC(=O)c4ccccc4)C(C)C32O)C1=O (configuration not stated)
T/C (dose: 0.12 mg/kg/injection, schedule: Q01DX009 (ip), vehicle: saline with Tween-80): 103 % of control | T/C (dose: 0.25 mg/kg/injection, schedule: Q01DX009 (ip), vehicle: saline with Tween-80): 107 % of control | T/C (dose: 0.5 mg/kg/injection, schedule: Q01DX009 (ip), vehicle: saline with Tween-80): 95 % of control | T/C (dose: 1.0 mg/kg/injection, schedule: Q01DX009 (ip), vehicle: saline with Tween-80): 108 % of control | T/C (dose: 2.0 mg/kg/injection, schedule: Q01DX009 (ip), vehicle: saline with Tween-80): 99 % of control

CC1c2ccccc2CC(CCN(C)C)c2ccccc21 (configuration not stated)
T/C (dose: 6.25 mg/kg/injection, schedule: Q01DX009 (ip), vehicle: saline with Tween-80): 100 % of control | T/C [5]: 101 % of control | T/C [6]: 107 % of control | T/C [7]: 96 % of control

NC(=O)c1ccc[n+](Cc2c(Cl)cccc2Cl)c1
T/C (dose: 5.0 mg/kg/injection, schedule: Q01DX009 (ip), vehicle: saline): 104 % of control | T/C (dose: 10.0 mg/kg/injection, schedule: Q01DX009 (ip), vehicle: saline): 105 % of control | T/C (dose: 20.0 mg/kg/injection, schedule: Q01DX009 (ip), vehicle: saline): 104 % of control | T/C (dose: 40.0 mg/kg/injection, schedule: Q01DX009 (ip), vehicle: saline): 91 % of control

COc1cc2c[n+](C)c3c(c2cc1OC)Cc1cc2c(cc1-3)OCO2
T/C (dose: 12.5 mg/kg/injection, schedule: Q01DX009 (ip), vehicle: suspension in saline): 97 % of control | T/C [10]: 114 % of control | T/C [11]: 119 % of control

N=C(N)Sc1cc(O)ccc1O
T/C [12]: 109 % of control | T/C [4]: 95 % of control | T/C [13]: 104 % of control | T/C [14]: 99 % of control | T/C [15]: 99 % of control

CC[As](=O)(O)CC
T/C [13]: 95 % of control | T/C [14]: 103 % of control | T/C [15]: 103 % of control

O=C(O)CC(=O)O.[NH-]CC[NH-].[Pt+2]
T/C (dose: 1.56 mg/kg/injection, schedule: Q01DX009 (ip), vehicle: dextrose): 108 % of control | T/C (dose: 3.12 mg/kg/injection, schedule: Q01DX009 (ip), vehicle: dextrose): 107 % of control and 120 % of control | T/C (dose: 6.25 mg/kg/injection, schedule: Q01DX009 (ip), vehicle: dextrose): 105 % of control and 109 % of control | T/C (dose: 12.5 mg/kg/injection, schedule: Q01DX009 (ip), vehicle: dextrose): 102 % of control and 119 % of control

CN=C(NC#N)NCCSCc1nc[nH]c1C
T/C (dose: 12.0 mg/kg/injection, schedule: Q01DX009 (ip), vehicle: Klucel (hydroxypropylcellulose) (HPC)): 104 % of control | T/C [1]: 100 % of control | T/C [2]: 103 % of control | T/C [3]: 99 % of control | T/C (dose: 200.0 mg/kg/injection, schedule: Q01DX009 (ip), vehicle: Klucel (hydroxypropylcellulose) (HPC)): 105 % of control | T/C (dose: 400.0 mg/kg/injection, schedule: Q01DX009 (ip), vehicle: Klucel (hydroxypropylcellulose) (HPC)): 95 % of control

Cc1ccoc1
T/C (dose: 8.3 mg/kg/injection, schedule: Q03HX027 (ip), vehicle: saline with Tween-80): 107 % of control | T/C (dose: 16.6 mg/kg/injection, schedule: Q03HX027 (ip), vehicle: saline with Tween-80): 112 % of control | T/C (dose: 33.3 mg/kg/injection, schedule: Q03HX027 (ip), vehicle: saline with Tween-80): 100 % of control | T/C (dose: 66.6 mg/kg/injection, schedule: Q03HX027 (ip), vehicle: saline with Tween-80): 102 % of control

CS(=O)(=O)Nc1ccc(C(=O)CCN2CCCCCC2)cc1
T/C [10]: 95 % of control | T/C [11]: 100 % of control | T/C (dose: 100.0 mg/kg/injection, schedule: Q01DX009 (ip), vehicle: suspension in saline): 105 % of control | T/C (dose: 200.0 mg/kg/injection, schedule: Q01DX009 (ip), vehicle: suspension in saline): 100 % of control | T/C (dose: 400.0 mg/kg/injection, schedule: Q01DX009 (ip), vehicle: suspension in saline): 102 % of control

COc1cccc2c1C(=O)c1c(O)c3c(c(O)c1C2=O)C[C@@](O)(C(=O)CO)C[C@@H]3OC1CC(N)C(O)C(C)O1 (some centres not stated)
T/C (dose: 0.12 mg/kg/injection, schedule: Q01DX009 (ip), vehicle: saline): 94 % of control and 96 % of control and 98 % of control | T/C (dose: 0.13 mg/kg/injection, schedule: Q01DX009 (ip), vehicle: saline): 102 % of control | T/C (dose: 0.5 mg/kg/injection, schedule: Q01DX009 (ip), vehicle: water): 95 % of control and 100 % of control | T/C (dose: 1.0 mg/kg/injection, schedule: Q01DX009 (ip), vehicle: water): 88 % of control | T/C (dose: 2.0 mg/kg/injection, schedule: Q01DX009 (ip), vehicle: water): 90 % of control and 123 % of control | T/C (dose: 4.0 mg/kg/injection, schedule: Q01DX009 (ip), vehicle: water): 112 % of control

c1ccc([P+](c2ccccc2)(c2ccccc2)c2ccccc2)cc1
T/C (dose: 0.09 mg/kg/injection, schedule: Q01DX009 (ip), vehicle: saline): 112 % of control | T/C (dose: 0.18 mg/kg/injection, schedule: Q01DX009 (ip), vehicle: saline): 112 % of control | T/C (dose: 0.37 mg/kg/injection, schedule: Q01DX009 (ip), vehicle: saline): 107 % of control | T/C [16]: 105 % of control and 112 % of control | T/C [17]: 103 % of control and 111 % of control | T/C [18]: 95 % of control and 124 % of control | T/C (dose: 6.0 mg/kg/injection, schedule: Q01DX009 (ip), vehicle: saline): 94 % of control

O=C1C=C2C(=CCOC2O)O1 (configuration not stated)
T/C (dose: 0.25 mg/kg/injection, schedule: Q01DX009 (ip), vehicle: Klucel (hydroxypropylcellulose) (HPC)): 99 % of control | T/C (dose: 0.5 mg/kg/injection, schedule: Q01DX009 (ip), vehicle: Klucel (hydroxypropylcellulose) (HPC)): 104 % of control | T/C [16]: 97 % of control | T/C (dose: 1.0 mg/kg/injection, schedule: Q01DX009 (ip), vehicle: Klucel (hydroxypropylcellulose) (HPC)): 94 % of control | T/C [17]: 98 % of control | T/C (dose: 2.0 mg/kg/injection, schedule: Q01DX009 (ip), vehicle: Klucel (hydroxypropylcellulose) (HPC)): 98 % of control | T/C [18]: 98 % of control | T/C (dose: 4.0 mg/kg/injection, schedule: Q01DX009 (ip), vehicle: Klucel (hydroxypropylcellulose) (HPC)): 94 % of control

CC(C)C(N)C(=O)Nc1nncs1 (configuration not stated)
T/C [12]: 108 % of control | T/C [4]: 104 % of control | T/C [13]: 114 % of control and 121 % of control | T/C (dose: 50.62 mg/kg/injection, schedule: Q01DX009 (ip), vehicle: saline): 103 % of control | T/C (dose: 50.62 mg/kg/injection, schedule: Q01DX009 (ip), vehicle: suspension in saline): 110 % of control | T/C (dose: 67.5 mg/kg/injection, schedule: Q01DX009 (ip), vehicle: saline): 103 % of control | T/C (dose: 67.5 mg/kg/injection, schedule: Q01DX009 (ip), vehicle: suspension in saline): 124 % of control | T/C (dose: 90.0 mg/kg/injection, schedule: Q01DX009 (ip), vehicle: saline): 100 % of control | T/C [14]: 165 % of control and 245 % of control | T/C (dose: 120.0 mg/kg/injection, schedule: Q01DX009 (ip), vehicle: saline): 112 % of control | T/C (dose: 120.0 mg/kg/injection, schedule: Q01DX009 (ip), vehicle: suspension in saline): 157 % of control | T/C (dose: 160.0 mg/kg/injection, schedule: Q01DX009 (ip), vehicle: saline): 117 % of control

CCCCCCOC(CN(C)C)C(Cl)(Cl)Cl (configuration not stated)
T/C [5]: 106 % of control | T/C [6]: 96 % of control | T/C [7]: 90 % of control | T/C [8]: 95 % of control | T/C [9]: 95 % of control
